Assay [1] deals with T1, histamine H3 receptor (Homo sapiens, UniProt Q9Y5N1).
T1 construct: expressed in transfected cells; host or cells: CHO K1 cells carrying pSwitch, transfected with pGeneH3, mifepristone-induced; clone 3H3; membranes
Kind of assay: Histamine H3 functional antagonist assay (method A), [35S]-GTPγS SPA on membranes. Type of assay: biochemical. To be noted: membrane from cultured H3 cells, histamine at EC80, averages of a number of experiments, read-out: functional pKi (fpKi), histamine H3 functional antagonist assay (method A) (converted). From the text: (§1) A membrane preparation containing histamine H3 receptors may be prepared in accordance with the following procedures:
(§2) DNA encoding the human histamine H3 gene (Huvar, A. et al. (1999) Mol. Pharmacol. 55(6), 1101-1107) was cloned into a holding vector, pCDNA3.1 TOPO (InVitrogen) and its cDNA was isolated from this vector by restriction digestion of plasmid DNA with the enzymes BamH1 and Not-1 and ligated into the inducible expression vector pGene (InVitrogen) digested with the same enzymes. The GeneSwitch™ system (a system where in transgene expression is switched off in the absence of an inducer and switched on in the presence of an inducer) was performed as described in U.S. Pat. Nos.: 5,364,791; 5,874,534; and 5,935,934. Ligated DNA was transformed into competent DH5α E. coli host bacterial cells and plated onto Luria Broth (LB) agar containing Zeocin™ (an antibiotic which allows the selection of cells expressing the sh ble gene which is present on pGene and pSwitch) at 50 μg ml^−1. Colonies containing the re-ligated plasmid were identified by restriction analysis. DNA for transfection into mammalian cells was prepared from 250 ml cultures of the host bacterium containing the pGeneH3 plasmid and isolated using a DNA preparation kit (Qiagen Midi-Prep) as per manufacturers guidelines (Qiagen). CHO K1 cells previously transfected with the pSwitch regulatory plasmid (InVitrogen) were seeded at 2×10e6 cells per T75 flask in Complete Medium, containing Hams F12 (GIBCOBRL, Life Technologies) medium supplemented with 10% v/v dialysed foetal bovine serum, L-glutamine, and hygromycin (100 μg ml^−1), 24 hours prior to use. Plasmid DNA was transfected into the cells using Lipofectamine plus according to the manufacturers guidelines (InVitrogen). 48 hours post transfection cells were placed into complete medium supplemented with 500 μg ml^−1 Zeocin™.
10-14 days post selection 10 nM Mifepristone (InVitrogen), was added to the culture medium to induce the expression of the receptor. 18 hours post induction cells were detached from the flask using ethylenediamine tetra-acetic acid (EDTA; 1:5000; InVitrogen), following several washes with phosphate buffered saline pH 7.4 and resuspended in Sorting Medium containing Minimum Essential Medium (MEM), without phenol red, and supplemented with Earles salts and 3% Foetal Clone II (Hyclone). […] Receptor bound antibody was detected by incubation of the cells for 60 minutes on ice with a goat anti rabbit antibody, conjugated with Alexa 488 fluorescence marker (Molecular Probes). Following two further washes with Sorting Medium, cells were filtered through a 50 μm Filcon™ (BD Biosciences) and then analysed on a FACS Vantage SE Flow Cytometer fitted with an Automatic Cell Deposition Unit. […]

In another assay the target is T2, human H1 receptor (Homo sapiens, UniProt P35367).
T2 construct: expressed in transfected cells
T2 sequence (P35367 whole entry): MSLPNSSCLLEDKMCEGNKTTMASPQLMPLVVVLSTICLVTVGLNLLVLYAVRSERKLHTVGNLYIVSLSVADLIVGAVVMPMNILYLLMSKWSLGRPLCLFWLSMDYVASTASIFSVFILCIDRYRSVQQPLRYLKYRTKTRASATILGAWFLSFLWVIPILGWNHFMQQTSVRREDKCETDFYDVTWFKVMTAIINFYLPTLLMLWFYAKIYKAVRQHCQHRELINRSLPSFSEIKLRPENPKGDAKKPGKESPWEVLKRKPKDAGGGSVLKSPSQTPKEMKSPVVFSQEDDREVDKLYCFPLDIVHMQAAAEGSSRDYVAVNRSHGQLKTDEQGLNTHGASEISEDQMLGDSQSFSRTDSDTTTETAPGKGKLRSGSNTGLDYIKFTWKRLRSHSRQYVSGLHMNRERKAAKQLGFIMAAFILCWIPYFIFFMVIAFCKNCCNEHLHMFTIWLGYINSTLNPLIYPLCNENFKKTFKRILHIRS
Kind of assay: Histamine H1 functional antagonist assay (FLIPR, Chinese hamster ovary cells). Type of assay: cell-based. The following applies: H1 cell line, FLIPR fluorescence, histamine at EC80; Cheng-Prusoff; averages of a number of experiments; read-out: functional pKi (fpKi), histamine H1 functional antagonist assay (converted). On the procedure: (iii) Generation of Histamine H1 Cell Line
The human H1 receptor was cloned using known procedures described in the literature [Biochem. Biophys. Res. Commun. 1994, 201(2), 894]. Chinese hamster ovary cells stably expressing the human Hi receptor were generated according to known procedures described in the literature [Br. J. Pharmacol. 1996, 117(6), 1071].
(II) Histamine H1 Functional Antagonist Assay
The histamine H1 cell line was seeded into non-coated black-walled clear bottom 384-well tissue culture plates in alpha minimum essential medium (Gibco/Invitrogen, cat no. 22561-021), supplemented with 10% dialysed foetal calf serum (Gibco/Invitrogen cat no. 12480-021) and 2 mM L-glutamine (Gibco/Invitrogen cat no 25030-024) and maintained overnight at 5% CO2, 37° C.
Excess medium was removed from each well to leave 10 μl. 30 μl loading dye (250 μM Brilliant Black, 2 μM Fluo-4 diluted in Tyrodes buffer+probenecid (145 mM NaCl, 2.5 mM KCl, 10 mM HEPES, 10 mM D-glucose, 1.2 mM MgCl2, 1.5 mM CaCl2, 2.5 mM probenecid, pH adjusted to 7.40 with NaOH 1.0 M)) was added to each well and the plates were incubated for 60 minutes at 5% CO2, 37° C.
10 μl of test compound, diluted to the required concentration in Tyrodes buffer+probenecid (or 10 μl Tyrodes buffer+probenecid as a control) was added to each well and the plate incubated for 30 min at 37° C., 5% CO2. The plates were then placed into a FLIPR™ (Molecular Devices, UK) to monitor cell fluorescence (λex=488 nm, λEM=540 nm) in the manner described in Sullivan et al. (In: Lambert DG (ed.), Calcium Signaling Protocols, New Jersey: Humana Press, 1999, 125-136) before and after the addition of 10 μl histamine at a concentration that results in the final assay concentration of histamine being EC80.
Functional antagonism is indicated by a suppression of histamine induced increase in fluorescence, as measured by the FLIPR™ system (Molecular Devices). By means of concentration effect curves, functional affinities are determined using standard pharmacological mathematical analysis.

In assay [2] the target is T1, histamine H3 receptor. Kind of assay: Histamine H3 functional antagonist assay (method B), [35S]-GTPγS SPA on membranes. Type of assay: biochemical. To be noted: membrane from cultured H3 cells, histamine at EC80, averages of a number of experiments, read-out: functional pKi (fpKi), histamine H3 functional antagonist assay (method B) (converted).
From the text: as §1, §2
10-14 days post selection 10 nM Mifepristone (InVitrogen), was added to the culture medium to induce the expression of the receptor. 18 hours post induction cells were detached from the flask using ethylenediamine tetra-acetic acid (EDTA; 1:5000; InVitrogen), following several washes with phosphate buffered saline pH 7.4 and resuspended in Sorting Medium containing Minimum Essential Medium (MEM), without phenol red, and supplemented with Earles salts and 3% Foetal Clone II (Hyclone). Approximately 1×10e7 cells were examined for receptor expression by staining with a rabbit polyclonal antibody, 4a, raised against the N-terminal domain of the histamine H3 receptor, incubated on ice for 60 minutes, followed by two washes in sorting medium. Receptor bound antibody was detected by incubation of the cells for 60 minutes on ice with a goat anti rabbit antibody, conjugated with Alexa 488 fluorescence marker (Molecular Probes). Following two further washes with Sorting Medium, cells were filtered through a 50 μm Filcon™ (BD Biosciences) and then analysed on a FACS Vantage SE Flow Cytometer fitted with an Automatic Cell Deposition Unit. Control cells were non-induced cells treated in a similar manner. Positively stained cells were sorted as single cells into 96-well plates, containing Complete Medium containing 500 μg ml^−1 Zeocin™ and allowed to expand before reanalysis for receptor expression via antibody and ligand binding studies. One clone, 3H3, was selected for membrane preparation.
All steps of the protocol are carried out at 4° C. and with pre-cooled reagents. The cell pellet is resuspended in 10 volumes of homogenisation buffer (50 mM N-2-hydroxyethylpiperazine-N′-2-ethanesulfonic acid (HEPES), 1 mM ethylenediamine tetra-acetic acid (EDTA), pH 7.4 with KOH, supplemented with 10e-6M leupeptin (acetyl-leucyl-leucyl-arginal; Sigma L2884), 25 μg/ml bacitracin (Sigma B0125), 1 mM phenylmethylsulfonyl fluoride (PMSF) and 2×10e-6M pepstain A (Sigma)). The cells are then homogenised by 2×15 second bursts in a 1 liter glass Waring blender, followed by centrifugation at 500 g for 20 minutes. […]
For orientation: GTPγS is a poorly hydrolysed GTP analogue; its binding reports G protein activation.

The structures appear in SMILES notation. Some results are limits rather than exact numbers.

T1 sequence (Q9Y5N1 whole entry): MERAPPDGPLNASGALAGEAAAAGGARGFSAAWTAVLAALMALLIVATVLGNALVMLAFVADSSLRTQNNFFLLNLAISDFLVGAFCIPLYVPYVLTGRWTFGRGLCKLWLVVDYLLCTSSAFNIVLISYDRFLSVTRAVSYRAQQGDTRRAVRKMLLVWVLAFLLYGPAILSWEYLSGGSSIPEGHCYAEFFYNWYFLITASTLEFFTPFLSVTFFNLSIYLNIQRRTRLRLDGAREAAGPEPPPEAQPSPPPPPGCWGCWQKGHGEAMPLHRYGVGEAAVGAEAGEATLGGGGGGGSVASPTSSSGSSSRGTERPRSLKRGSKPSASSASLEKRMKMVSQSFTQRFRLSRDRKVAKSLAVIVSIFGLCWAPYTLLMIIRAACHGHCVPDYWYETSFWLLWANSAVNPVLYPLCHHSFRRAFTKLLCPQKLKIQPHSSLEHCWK

Consider `CC(C)NC(=O)c1cnc(N2CCC(CC3CCN(C4CCC4)CC3)CC2)cn1` [Example E6, 5-{4-[(1-Cyclobutyl-4-piperidinyl)methyl]-1-piperidinyl}-N-(1-methylethyl)-2-pyrazinecarboxamide], for which the Ki on histamine H3 receptor [1] was ≤ 1 nM; on human H1 receptor it was > 1000 nM.
Take `CC(C)NC(=O)c1cnc(N2CCC(CC3CCN(C(C)C)CC3)CC2)cn1` [Example E7]: the Ki at histamine H3 receptor [1] was ≤ 10 nM.
Turning to `CNC(=O)c1cnc(N2CCC(CC3CCN(C4CCC4)CC3)CC2)cn1` [Example E8], the Ki at histamine H3 receptor [2] is ≤ 1 nM.
Turning to `CCNC(=O)c1cnc(N2CCC(CC3CCN(C4CCC4)CC3)CC2)cn1` [Example E9, 5-{4-[(1-cyclobutyl-4-piperidinyl)methyl]-1-piperidinyl}-N-ethyl-2-pyrazinecarboxamide], the Ki on human H1 receptor is > 1000 nM; at histamine H3 receptor [2], ≤ 1 nM.
The matching figures for `CNC(=O)c1ccc(N2CCC(CC3CCN(C4CCC4)CC3)CC2)cn1` [Example E11, 5-{4-[(1-Cyclobutyl-4-piperidinyl)methyl]-1-piperidinyl}-N-methyl-2-pyridinecarboxamide]: > 1000 nM and ≤ 1 nM.
For `CNC(=O)c1ccc(N2CCC(CC3CCN(C(C)C)CC3)CC2)cn1` [Example E12, N-Methyl-5-(4-{[1-(1-methylethyl)-4-piperidinyl]methyl}-1-piperidinyl)-2-pyridinecarboxamide], the Ki at histamine H3 receptor [1] and on histamine H3 receptor [2] was ≤ 1 nM each time.
On to `Cc1noc(-c2ccc(N3CCC(CC4CCN(C(C)C)CC4)CC3)cc2)n1` [Example E13, 1-(1-Methylethyl)-4-({1-[4-(3-methyl-1,2,4-oxadiazol-5-yl)phenyl]-4-piperidinyl}methyl)piperidine], for which the Ki at histamine H3 receptor [1] is ≤ 0.316 nM.
Turning to `Cc1noc(-c2ccc(N3CCC(CC4CCN(C(C)C)CC4)CC3)c(F)c2)n1` [Example E14, 1-[2-Fluoro-4-(3-methyl-1,2,4-oxadiazol-5-yl)phenyl]-4-{[1-(1-methylethyl)-4-piperidinyl]methyl}piperidine], the Ki at histamine H3 receptor [2] was ≤ 1 nM.
For `Cc1noc(-c2ccc(N3CCC(CC4CCN(C(C)C)CC4)CC3)cn2)n1` [Example E15, 5-(4-{[1-(1-Methylethyl)-4-piperidinyl]methyl}-1-piperidinyl)-2-(3-methyl-1,2,4-oxadiazol-5-yl)pyridine], the Ki on histamine H3 receptor [2] is ≤ 1 nM.
Turning to `Cc1noc(-c2ccc(N3CCC(CC4CCN(C(C)C)CC4)CC3)cc2F)n1` [Example E16, 1-[3-fluoro-4-(3-methyl-1,2,4-oxadiazol-5-yl)phenyl]-4-{[1-(1-methylethyl)-4-piperidinyl]methyl}piperidine], the Ki on histamine H3 receptor [2] is ≤ 0.316 nM.
For `Cc1noc(-c2ccc(N3CCC(CC4CCN(C5CCC5)CC4)CC3)cn2)n1` [Example E17, 5-{4-[(1-cyclobutyl-4-piperidinyl)methyl]-1-piperidinyl}-2-(3-methyl-1,2,4-oxadiazol-5-yl)pyridine], at histamine H3 receptor [2], the Ki was ≤ 1 nM.
Regarding `CCN1CCC(CC2CCN(c3ccc(-c4nc(C)no4)cc3)CC2)CC1` [Example E18], the Ki on histamine H3 receptor [2] is ≤ 0.316 nM.
On to `CC(C)N1CCC(CC2CCN(c3ccc(C#N)nc3)CC2)CC1` [Example E21, 5-(4-{[1-(1-Methylethyl)-4-piperidinyl]methyl}-1-piperidinyl)-2-pyridinecarbonitrile], for which the Ki at histamine H3 receptor [2] was ≤ 1 nM.
Consider `N#Cc1ccc(N2CCC(CC3CCN(C4CCC4)CC3)CC2)cn1` [Example E22, 5-{4-[(1-Cyclobutyl-4-piperidinyl)methyl]-1-piperidinyl}-2-pyridinecarbonitrile], for which the Ki at histamine H3 receptor [2] was ≤ 0.316 nM.
The same measure, in the same setting: the result for `CC(=O)c1ccc(N2CCC(CC3CCN(C(C)C)CC3)CC2)cn1` [Example E23, 1-{[5-(4-[1-(1-Methylethyl)-4-piperidinyl]methyl}-1-piperidinyl)-2-pyridinyl]ethanone] reads ≤ 1 nM; that for `CC(=O)c1ccc(N2CCC(CC3CCN(C4CCC4)CC3)CC2)cn1` [Example E24, 1-(5-{4-[(1-Cyclobutyl-4-piperidinyl)methyl]-1-piperidinyl}-2-pyridinyl)ethanone], ≤ 0.316 nM.
As for `CC(=O)c1ccc(N2CCC(CC3CCN(C4CCC4)CC3)CC2)cc1` [Example E25, 1-(4-{4-[(1-Cyclobutyl-4-piperidinyl)methyl]-1-piperidinyl}phenyl)ethanone], the Ki at histamine H3 receptor [2] was ≤ 1 nM.
In the case of `CC(=O)c1ccc(N2CCC(CC3CCN(C(C)C)CC3)CC2)cc1` [Example E26], the Ki at histamine H3 receptor [2] is ≤ 1 nM.
For `CCN1CCC(CC2CCN(c3ccc(C(C)=O)cc3)CC2)CC1` [Example E27], the Ki at histamine H3 receptor [2] was ≤ 1 nM.
For `CC(=O)c1ccc(N2CCC(CC3CCN(C4CCC4)CC3)CC2)nc1` [Example E29], the Ki on histamine H3 receptor [2] was ≤ 1 nM.
As to `O=C(c1ccc(N2CCC(CC3CCN(C4CCC4)CC3)CC2)cc1)C(F)(F)F` [Example E31], the Ki at histamine H3 receptor [2] is ≤ 1 nM.
For the compound `FC(F)(F)c1ccc(N2CCC(CC3CCN(C4CCC4)CC3)CC2)nn1` [Example E34], the Ki on histamine H3 receptor [2] was ≤ 1 nM.
Regarding `CC(C)N1CCC(CC2CCN(c3cnc(C(F)(F)F)nc3)CC2)CC1` [Example E36, 5-(4-{[1-(1-Methylethyl)-4-piperidinyl]methyl}-1-piperidinyl)-2-(trifluoromethyl)pyrimidine], the figures for the Ki at human H1 receptor and at histamine H3 receptor [2] were > 1000 nM and ≤ 10 nM, respectively.

Values taken from patent US7638631B2, “Methylene dipiperidine derivatives” (Glaxo Group Limited, priority 2004, dated 2009).
